Earlier results on one molecule are cited in patent US20260014105A1, “POWDER MIXTURE COMPRISING REPARIXIN” (Dompe' Farmaceutici SPA, priority 2022, published 2026).

SMILES strings stand for the structures.

In this data set the test system is hospitalized patients with severe COVID-19 pneumonia.

In the case of `CC(C)Cc1ccc([C@@H](C)C(=O)NS(C)(=O)=O)cc1` [reparixin, R-(−)-2-(4-isobutylphenyl)propionyl methansulfonamide], the “Clinical outcomes compared with the standard of care” value is recorded as “improved clinical outcomes”.
